Data from patent publication US20220048945A1, “PEPTIDE INHIBITING ACTIVITY OF ARYL HYDROCARBON RECEPTOR AND COSMETIC COMPOSITION USING SAME” (SUPADELIXIR INC., priority 2019, published 2022).

How the values were obtained:
TNF-α = experiment: ELISA, TNF-α production caused by fine dust; format: cell-based, human; conditions: HaCaT cells, fine dust 10 ug/ml plus peptide 20 uM, 24 hours; fine dust only = 100, no treatment = 0
Procedure: (§1) 2. Specifically, the cultured HaCaT cells were treated with 10 ug/ml of fine dust and 20 uM of the peptide produced in Example 1 (AhR Pep1 to AhR Pep4) respectively, and incubated for 24 hours. Then, IL-6 and TNF-α contents were measured using a […] enzyme-linked immunosorbent assay (ELISA) kit (R&D Systems Inc, Minneapolis, Minn., USA).

IL-6 = experiment: ELISA, IL-6 production caused by fine dust; format: cell-based, human; conditions: HaCaT cells, fine dust 10 ug/ml plus peptide 20 uM, 24 hours; fine dust only = 100, no treatment = 0
Procedure: as §1

Row | Substance | TNF-α production (%) (TNF-α) | IL-6 production (%) (IL-6)
1 | Asp-Arg-Leu (DRL; Peptide 2) [AhR Pep 2] | 93 | 87
2 | Asn-Thr-Glu (NTE; Peptide 4) [AhR Pep 4] | 82 | 74
3 | Asp-Arg-Leu-Asn (DRLN; Peptide 1) [AhR Pep 1] | 79 | 76
4 | Asn-Thr-Glu-Leu (NTEL; Peptide 3) [AhR Pep 3] | 89 | 83
